Converted amounts (≈) assume the structure as drawn.
What was measured:
Type in all cases: functional
[1] = test system: Cryptococcus neoformans; assay: Antifungal activity against Cryptococcus neoformans by spectrophotometric method
[2] = test system: Candida albicans; assay: Antifungal activity against Candida albicans by spectrophotometric method
[3] = test system: Sporothrix schenckii; assay: Antifungal activity against Sporothrix schenckii by spectrophotometric method
[4] = test system: Trichophyton mentagrophytes; assay: Antifungal activity against Trichophyton mentagrophytes by spectrophotometric method
[5] = test system: Aspergillus fumigatus; assay: Antifungal activity against Aspergillus fumigatus by spectrophotometric method
[6] = test system: Candida parapsilosis; assay: Antifungal activity against Candida parapsilosis ATCC 22019 by spectrophotometric method; conditions: Lodderomyces parapsilosis
[7] = test system: Escherichia coli; assay: Antibacterial activity against Escherichia coli ATCC 9637 by spectrophotometric method; conditions: W
[8] = test system: Pseudomonas aeruginosa; assay: Antibacterial activity against Pseudomonas aeruginosa ATCC BAA-427 by spectrophotometric method
[9] = test system: Staphylococcus aureus; assay: Antibacterial activity against Staphylococcus aureus ATCC 25923 by spectrophotometric method
[10] = test system: Klebsiella pneumoniae; assay: Antibacterial activity against Klebsiella pneumoniae ATCC 27736 by spectrophotometric method
[11] = test system: Klebsiella pneumoniae; assay: Potency index, ratio of gentamicin MIC to compound MIC for Klebsiella pneumoniae ATCC 27736
[12] = test system: Klebsiella pneumoniae; assay: Potency index, ratio of amphicillin MIC to compound MIC for Klebsiella pneumoniae ATCC 27736

Compound | MIC [1] [mg/L] | MIC [2] [mg/L] | MIC [3] [mg/L] | MIC [4] [mg/L] | MIC [5] [mg/L] | MIC [6] [mg/L] | MIC [7] [mg/L] | MIC [8] [mg/L] | MIC [9] [mg/L] | MIC [10] [mg/L] | Ratio [11] | Ratio [12]
OC(Cn1cncn1)(Cn1cncn1)c1ccc(F)cc1F [FLUCONAZOLE] | 0.5 (≈ 1.63 µM) | 1 (≈ 3.27 µM) | 2 (≈ 6.53 µM) | 1 (≈ 3.27 µM) | 2 (≈ 6.53 µM) | 1 (≈ 3.27 µM) |  |  |  |  |  | 
CCOC(=O)[C@]1(C#N)[C@@H](c2c(F)cccc2Cl)CN(C)[C@@]12C(=O)Nc1c(C)cc(C)cc12 | 50 (≈ 110 µM) | 50 (≈ 110 µM) | 25 (≈ 54.8 µM) | 12.5 (≈ 27.4 µM) | 25 (≈ 54.8 µM) | 50 (≈ 110 µM) | > 50 | > 50 | 12.5 (≈ 27.4 µM) | 3.12 (≈ 6.84 µM) |  | 
CN1C[C@H](c2ccc(Cl)c(Cl)c2)C(C#N)(C#N)[C@]12C(=O)Nc1ccc(Cl)cc12 | > 50 | > 50 | 50 (≈ 116 µM) | > 50 | > 50 | > 50 | > 50 | > 50 | > 50 | 6.25 (≈ 14.5 µM) |  | 
CCOC(=O)[C@]1(C#N)[C@@H](c2ccc(Cl)cc2)CN(C)[C@@]12C(=O)Nc1c(C)cc(C)cc12 | 50 (≈ 114 µM) | 50 (≈ 114 µM) | 50 (≈ 114 µM) | 50 (≈ 114 µM) | 50 (≈ 114 µM) | 50 (≈ 114 µM) | > 50 | > 50 | 50 (≈ 114 µM) | 1.56 (≈ 3.56 µM) |  | 
CCOC(=O)[C@]1(C#N)[C@@H](c2ccc(Cl)c(Cl)c2)CN(C)[C@@]12C(=O)Nc1c(C)cc(C)cc12 | > 50 | > 50 | > 50 | 50 (≈ 106 µM) | > 50 | > 50 | > 50 | > 50 | > 50 | 6.25 (≈ 13.2 µM) |  | 
CC1(C)S[C@@H]2[C@H](NC(=O)[C@H](N)c3ccccc3)C(=O)N2[C@H]1C(=O)O [AMPICILLIN] |  |  |  |  |  |  | 50 (≈ 143 µM) | 50 (≈ 143 µM) | 0.19 (≈ 0.544 µM) | 0.39 (≈ 1.12 µM) |  | 
CCOC(=O)[C@]1(C#N)[C@@H](c2ccc(OC)cc2)CN(C)[C@@]12C(=O)Nc1c(C)cc(C)cc12 | > 50 | > 50 | > 50 | 50 (≈ 115 µM) | > 50 | > 50 | > 50 | > 50 | > 50 | 25 (≈ 57.7 µM) |  | 
GENTAMICIN |  |  |  |  |  |  | 0.78 | 0.78 | 0.39 | 0.78 |  | 
CCOC(=O)[C@]1(C#N)[C@@H](c2ccc(Cl)c(Cl)c2)CN(C)[C@@]12C(=O)Nc1ccc(Cl)cc12 | > 50 | > 50 | > 50 | > 50 | > 50 | > 50 | > 50 | > 50 | > 50 | 50 (≈ 104 µM) |  | 
CCOC(=O)[C@]1(C#N)[C@@H](c2c(F)cccc2Cl)C2CSCN2[C@@]12C(=O)Nc1ccccc12 (some centres not stated) | > 50 | > 50 | > 50 | 50 (≈ 106 µM) | > 50 | > 50 | > 50 | > 50 | > 50 | 0.045 (≈ 0.0954 µM) |  | 
N#CC1(C#N)[C@@H](c2ccc(Cl)c(Cl)c2)C2CSCN2[C@@]12C(=O)Nc1ccccc12 (some centres not stated) | > 50 | > 50 | > 50 | 50 (≈ 113 µM) | > 50 | > 50 | > 50 | > 50 | > 50 | 0.005 (≈ 0.0113 µM) | 156 | 78
CCOC(=O)[C@]1(C#N)[C@@H](c2c(F)cccc2Cl)CN(C)[C@@]12C(=O)Nc1ccc([N+](=O)[O-])cc12 | 50 (≈ 106 µM) | 50 (≈ 106 µM) | > 50 | > 50 | > 50 | 50 (≈ 106 µM) | > 50 | > 50 | > 50 | 50 (≈ 106 µM) |  | 
C[C@@H]1[C@H](O)[C@@H](C)/C=C/C=C/C=C/C=C/C=C/C=C/C=C/[C@H](O[C@@H]2O[C@H](C)[C@@H](O)[C@H](N)[C@@H]2O)C[C@@H]2O[C@](O)(C[C@@H](O)C[C@@H](O)[C@H](O)CC[C@@H](O)C[C@@H](O)CC(=O)O[C@H]1C)C[C@H](O)[C@H]2C(=O)O [AMPHOTERICIN B] | 0.12 (≈ 0.13 µM) | 0.06 (≈ 0.0649 µM) | 0.12 (≈ 0.13 µM) | 0.12 (≈ 0.13 µM) | 0.5 (≈ 0.541 µM) | 0.12 (≈ 0.13 µM) |  |  |  |  |  | 
CCOC(=O)[C@]1(C#N)[C@@H](c2cccs2)C2CSCN2[C@@]12C(=O)Nc1ccccc12 (some centres not stated) | > 50 | > 50 | > 50 | 50 (≈ 117 µM) | > 50 | > 50 | > 50 | > 50 | > 50 | 0.09 (≈ 0.211 µM) |  | 
CCOC(=O)[C@]1(C#N)[C@@H](c2c(F)cccc2Cl)CN(C)[C@@]12C(=O)Nc1ccc(Cl)cc12 | 50 (≈ 108 µM) | 50 (≈ 108 µM) | 50 (≈ 108 µM) | 50 (≈ 108 µM) | 50 (≈ 108 µM) | 50 (≈ 108 µM) | > 50 | > 50 | > 50 | 25 (≈ 54.1 µM) |  | 
N#CC1(C#N)[C@@H](c2cccc([N+](=O)[O-])c2)C2CSCN2[C@@]12C(=O)Nc1ccccc12 (some centres not stated) | > 50 | > 50 | > 50 | > 50 | > 50 | > 50 | > 50 | > 50 | > 50 | 0.19 (≈ 0.455 µM) |  | 

Source: ChEMBL document CHEMBL4024739, “Diversity-oriented sustainable synthesis of antimicrobial spiropyrrolidine/thiapyrrolizidine oxindole derivatives: New ligands for a metallo-β-lactamase from Klebsiella pneumonia” (2017)
